Data: PubChem BioAssay (NCI)
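Interpolation was linear, between the two tested concentrations surrounding the appropriate level; five concentrations were tested over 48 hours in 96-well plates. TGI: total growth inhibition.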

Legend:
Assay in all cases: growth of human tumour cells (NCI), 48 h
[1] = tested on: HCT-15 colon
[2] = tested on: SF-295 CNS
[3] = tested on: CAKI-1 renal
[4] = tested on: A498 renal
[5] = tested on: BT-549 breast
[6] = tested on: A549 NSCLC
[7] = tested on: EKVX NSCLC
[8] = tested on: SR leukemia
[9] = tested on: LOX IMVI melanoma
[10] = tested on: SK-MEL-28 melanoma
[11] = tested on: KM12 colon
[12] = tested on: IGROV1 ovarian
[13] = tested on: MDA-MB-231 breast
[14] = tested on: HOP-62 NSCLC
[15] = tested on: RXF 393 renal
[16] = tested on: UACC-257 melanoma
[17] = tested on: K-562 leukemia
[18] = tested on: MALME-3M melanoma
[19] = tested on: MOLT-4 leukemia
[20] = tested on: U251 CNS
[21] = tested on: OVCAR-8 ovarian
[22] = tested on: HT29 colon
[23] = tested on: SW-620 colon
[24] = tested on: UO-31 renal
[25] = tested on: NCI-H23 lung
[26] = tested on: SF-539 CNS
[27] = tested on: OVCAR-5 ovarian
[28] = tested on: RPMI-8226 leukemia
[29] = tested on: NCI-H226 lung
[30] = tested on: TK-10 renal
[31] = tested on: SF-268 CNS
[32] = tested on: SK-OV-3 ovarian
[33] = tested on: ACHN renal
[34] = tested on: 786-0 renal
[35] = tested on: PC-3 prostate
[36] = tested on: HCC-2998 colon
[37] = tested on: M14 melanoma
[38] = tested on: MDA-N
[39] = tested on: NCI/ADR-RES ovarian
[40] = tested on: SNB-75 CNS
[41] = tested on: HS 578T breast
[42] = tested on: NCI-H522 lung
[43] = tested on: MCF7 breast
[44] = tested on: NCI-H460 lung
[45] = tested on: SK-MEL-2 melanoma
[46] = tested on: COLO 205 colon
[47] = tested on: OVCAR-4 ovarian
[48] = tested on: MDA-MB-435
[49] = tested on: SN12C renal
[50] = tested on: HL-60(TB) leukemia
[51] = tested on: OVCAR-3 ovarian
[52] = tested on: DU-145 prostate
[53] = tested on: HOP-92 NSCLC
[54] = tested on: UACC-62 melanoma
[55] = tested on: SK-MEL-5 melanoma
[56] = tested on: HCT-116 colon
[57] = tested on: CCRF-CEM leukemia
[58] = tested on: T-47D breast
[59] = tested on: SNB-19 CNS

c1ccc2c(c1)c1c3c(c4c(n32)=NCCN4)CCC1 showed a TGI [1] of over 100 µM, a TGI [2] of over 100 µM and a TGI [3] of over 100 µM. It also gave a TGI [4] of 65.8 µM, a TGI [5] of over 100 µM and a TGI [6] of over 100 µM. The TGI [7] was over 100 µM, the TGI [8] was 47.4 µM and the TGI [9] was 43.3 µM. For the same compound, the TGI [10] was over 100 µM, the TGI [11] was over 100 µM and the TGI [12] was over 100 µM. It also gave a TGI [13] of 98.9 µM, a TGI [14] of over 100 µM and a TGI [15] of 60.8 µM. For the same compound, the TGI [16] was over 100 µM, the TGI [17] was over 100 µM and the TGI [18] was over 100 µM. For the same compound, the TGI [19] was 60.9 µM, the TGI [20] was over 100 µM and the TGI [21] was over 100 µM. It also gave a TGI [22] of 56.7 µM, a TGI [23] of over 100 µM and a TGI [24] of over 100 µM. The TGI [25] was over 100 µM, the TGI [26] was over 100 µM and the TGI [27] was over 100 µM. It also gave a TGI [28] of 63.2 µM, a TGI [29] of 80.9 µM and a TGI [30] of over 100 µM. The TGI [31] was over 100 µM, the TGI [32] was over 100 µM and the TGI [33] was over 100 µM. It also gave a TGI [34] of over 100 µM, a TGI [35] of over 100 µM and a TGI [36] of over 100 µM. The TGI [37] was over 100 µM, the TGI [38] was 59.3 µM and the TGI [39] was 99.7 µM. For the same compound, the TGI [40] was 71.5 µM, the TGI [41] was over 100 µM and the TGI [42] was 61.2 µM. It also gave a TGI [43] of 98.2 µM, a TGI [44] of over 100 µM and a TGI [45] of 66.2 µM. For the same compound, the TGI [46] was over 100 µM, the TGI [47] was over 100 µM and the TGI [48] was over 100 µM. For the same compound, the TGI [49] was 49.4 µM, the TGI [50] was over 100 µM and the TGI [51] was over 100 µM. It also gave a TGI [52] of over 100 µM, a TGI [53] of 88 µM and a TGI [54] of over 100 µM. For the same compound, the TGI [55] was over 100 µM, the TGI [56] was over 100 µM and the TGI [57] was over 100 µM. It also gave a TGI [58] of 92.1 µM and a TGI [59] of over 100 µM.
